# Reference: patent US10238713B2, “Cyclic tetrapeptides and therapeutic applications thereof” (LODZ UNIVERSITY OF TECHNOLOGY, priority 2010, dated 2019)
# Non-standard residues stand in square brackets, D forms with d. Residues, ends and D or L forms follow the SMILES beside them. Phe(4-I) = N[C@@H](Cc1ccc(I)cc1)C(=O)O; Phe(4-Me) = Cc1ccc(C[C@H](N)C(=O)O)cc1; 2Nal = N[C@@H](Cc1ccc2ccccc2c1)C(=O)O; Tic = O=C(O)[C@@H]1Cc2ccccc2CN1; β3hF = N[C@H](CC(=O)O)Cc1ccccc1; ΔPro = O=C(O)[C@@H]1C=CCN1
# System: human PBMC
# Assay: Toxicity test: PBMC survival in 24 h culture (MTT)
# Details: 10 μg/ml, ANOVA, FIGS. 8A-8F (4B8M repeated per figure)
# Description: PBMC were isolated by centrifugation on Ficoll-uropoline gradient (density 1.077 g/ml) (Lymphoprep; PAA Laboratories), at 800×g for 20 min at 4° C. The interphase cells, consisting of lymphocytes (20%) and monocytes (80%) were then washed three times with Hanks' medium and re-suspended in the culture medium at density of 2×10^6 cells/ml.
# Appropriate dilutions of DMSO in RPMI 1640 medium were used as controls. Cell survival was determined by the MTT colorimetric method (Hansen et al., J. Immunol. Methods, 1989, pp. 203-210). The data are presented as a mean OD value from quadriplicate wells ±standard error (SE). The cultures “Control (−)” contained only cells in the culture medium.
# The assay was performed per Hansen et al., J. Immunol. […] Briefly, 25 μl of MTT (5 mg/ml) stock solution was added per well at the end of cell incubation and the plates were incubated for 3 h in a cell culture incubator. Then, 100 μl of the extraction buffer (20% SDS with 50% DMF, pH 4.7) was added. After additional overnight incubation, the optical density was measured at 550 nm (Dynatech 5000).
row,SMILES,"PBMC survival, P vs DMSO at appropriate dilution"
1,O=C1C[C@H](Cc2ccccc2)NC(=O)[C@@H]2Cc3ccccc3CN2C(=O)[C@@H]2CCCN2C(=O)[C@H](Cc2ccccc2)N1 [I-AB] (cyclo(FP[Tic][β3hF])),0.8876
2,Cc1ccc(C[C@@H]2NC(=O)C[C@H](Cc3ccccc3)NC(=O)[C@@H]3CCCN3C(=O)[C@@H]3CCCN3C2=O)cc1 [I-Z] (cyclo(PP[β3hF][Phe(4-Me)])),0.9997
3,O=C1C[C@H](Cc2ccccc2)NC(=O)[C@@H]2CCCN2C(=O)[C@@H]2C=CCN2C(=O)[C@H](Cc2ccccc2)N1 [I-S] (cyclo(F[ΔPro]P[β3hF])),0.9753
4,O=C1C[C@H](Cc2ccccc2)NC(=O)[C@@H]2CCCN2C(=O)[C@@H]2CCCN2C(=O)[C@H](Cc2ccc(I)cc2)N1 [I-W] (cyclo(PP[β3hF][Phe(4-I)])),0.9992
5,O=C1C[C@H](Cc2ccccc2)NC(=O)[C@@H]2CCCN2C(=O)[C@@H]2CCCN2C(=O)[C@H](Cc2ccc3ccccc3c2)N1 [I-U] (cyclo([2Nal]PP[β3hF])),0.9972

# Same assay, conditions: 100 μg/ml, ANOVA, FIGS. 8A-8F (4B8M repeated per figure)
row,SMILES,"PBMC survival, P vs DMSO at appropriate dilution"
1,O=C1C[C@H](Cc2ccccc2)NC(=O)[C@@H]2Cc3ccccc3CN2C(=O)[C@@H]2CCCN2C(=O)[C@H](Cc2ccccc2)N1 [I-AB] (cyclo(FP[Tic][β3hF])),0.0001
2,Cc1ccc(C[C@@H]2NC(=O)C[C@H](Cc3ccccc3)NC(=O)[C@@H]3CCCN3C(=O)[C@@H]3CCCN3C2=O)cc1 [I-Z] (cyclo(PP[β3hF][Phe(4-Me)])),0.0236
3,O=C1C[C@H](Cc2ccccc2)NC(=O)[C@@H]2CCCN2C(=O)[C@@H]2C=CCN2C(=O)[C@H](Cc2ccccc2)N1 [I-S] (cyclo(F[ΔPro]P[β3hF])),1.0000
4,O=C1C[C@H](Cc2ccccc2)NC(=O)[C@@H]2CCCN2C(=O)[C@@H]2CCCN2C(=O)[C@H](Cc2ccc(I)cc2)N1 [I-W] (cyclo(PP[β3hF][Phe(4-I)])),0.9602
5,O=C1C[C@H](Cc2ccccc2)NC(=O)[C@@H]2CCCN2C(=O)[C@@H]2CCCN2C(=O)[C@H](Cc2ccc3ccccc3c2)N1 [I-U] (cyclo([2Nal]PP[β3hF])),0.4949

# System: mice, carrageenan air pouch
# Assay: Carrageenan air-pouch test (exudate cell number)
# Type: in vivo, mouse
# Details: peptides 100 μg i.p. one hour before carrageenan, 24 h; FIGS. 18A-18B
# Description: (§1) In this and the air-pouch test, 1.5 mg peptide was dissolved in 300 μl of DMSO, then in 0.9% NaCl to achieve the desired dose (250 μg/0.2 ml or 100 μg/0.2 ml). Carrageenan (Sigma) was dissolved in 0.9% aqueous NaCl (overnight). 50 μl of 2% carrageenan solution was injected intradermally into hind foot pads. The peptides were given in a single 250 μg dose (0.2 ml) per mouse intraperitoneally (i.p.), 30 min before carrageenan administration. Dexamethasone (DEX) (Dexaven, Polfa, Poland), a reference drug, was given i.p. in dose 25 μg per mouse. Control mice were administered i.p. appropriately diluted solvent (DMSO in aqueous NaCl) instead of peptides. The foot pads of “background” (BG) mice were injected with 50 μl of 0.9% aqueous NaCl. Foot pad edema was measured with a spring caliper, 2 h, 3 h and 4 h after administration of carrageenan. The results are presented in FIGS. 17A, 17B and 17C as mean values of the antigen-specific increase of the foot pad thickness measured in 5 mice in each experimental group and expressed in mm ±SE (only results from measurements 4 h following administration of carrageenan are presented in figures). Statistics: FIG. 17A: Control vs: DEX P=0.0001; 4B8M P=0.0001; P25 NS (P=1.0000); P28 NS (P=1.0000); P31 NS (P=0.0528); P35 P=0.0008 (ANOVA of Kruskal-Wallis); FIG. 17B: Statistics: Control vs: P22 NS (P=1.0000); P26 NS (P=1.0000); P27 P=0.0050; P30 P=0.0004; P33-b NS (P=1.0000); SP00-b P=0.0001; P00S-b NS (P=1.0000) (ANOVA of Kruskal-Wallis); FIG. 17C: Statistics: Control vs: P21 P=0.0147; P23-2 P=0.0083; P24 P=0.0001; P29 NS (P=0.9999); P32 P=0.0001; P33 NS (P=0.6806); P34 NS (P=0.1920) (ANOVA).
# Air pouches were formed by subdermal injection into the dorsal region (in a halothane anesthesia) of 5 cm^3 of air (needle 23G x 11/4, 5 ml syringe). On day 3 the air pouches were given an additional 2 ml of air and an inflammatory process was elicited by an intra-pouch injection of 1% of carrageenan in 0.5 ml of 0.9% aqueous NaCl. The peptides were given i.p. at a dose of 100 μg one hour before carrageenan injection into the air pouch. The mice from the “background” (BG) group were given 0.9% aqueous NaCl i.p. and 0.9% aqueous NaCl into the air pouches. Control mice were given appropriately diluted DMSO i.p. and carrageenan into the air pouches. 24 h after carrageenan injection, the mice were sacrificed by cervical dislocation, the air pouches were supplemented with 1 ml of 0.9% aqueous NaCl and the exudates from the air pouches were aspirated using a syringe. The exudates were diluted with 0.9% aqueous NaCl and the cells were counted in a Bürker hemocytometer. Data are presented in FIGS. 18A and 18B as the mean values from 10 mice/group (cell number×10^6 per mouse) ±SE. Then the cells were centrifuged and 0.1 ml of the supernatant was saved for TNF-α determination (see Determination of TNF-α activity, above). The cell pellets were used to perform smears on microscopic glasses, which were stained with Giemsa and May-Grünwald reagents for evaluation of mast cell degranulation. Cell analysis was performed by a histologist using a light microscope and 1000× magnification. The content of intact and degranulated mast cells is given in percentage (mean values from 10 mice/group) ±SE. Statistics: FIG. 18A: BG vs Control P=0.0000; Control vs: DEX P=0.0034; 4B8M P=0.0005; P22 NS (P=0.7275); P26 P=0.0032; P27 NS (P=0.0659); P35 NS (P=1.0000) (ANOVA of Kruskal-Wallis); FIG. 18B: Control vs: P21 NS (P=0.322); P23-2 P=0.0020; P24 P=0.0001; P25 P=0.0418; P28 NS (P=0.3502); P29 NS (P=0.0582); P30 P=0.0006; P31 P=0.0078; P32 P=0.0340; P33 NS (P=0.9993); P34 NS (p=0.0566) (ANOVA).
row,SMILES,"air pouch exudate cell number, P vs Control"
1,O=C1C[C@H](Cc2ccccc2)NC(=O)[C@@H]2Cc3ccccc3CN2C(=O)[C@@H]2CCCN2C(=O)[C@H](Cc2ccccc2)N1 [I-AB] (cyclo(FP[Tic][β3hF])),0.0582
2,Cc1ccc(C[C@@H]2NC(=O)C[C@H](Cc3ccccc3)NC(=O)[C@@H]3CCCN3C(=O)[C@@H]3CCCN3C2=O)cc1 [I-Z] (cyclo(PP[β3hF][Phe(4-Me)])),0.0659
3,O=C1C[C@H](Cc2ccccc2)NC(=O)[C@@H]2CCCN2C(=O)[C@@H]2C=CCN2C(=O)[C@H](Cc2ccccc2)N1 [I-S] (cyclo(F[ΔPro]P[β3hF])),0.7275
4,O=C1C[C@H](Cc2ccccc2)NC(=O)[C@@H]2CCCN2C(=O)[C@@H]2CCCN2C(=O)[C@H](Cc2ccc3ccccc3c2)N1 [I-U] (cyclo([2Nal]PP[β3hF])),0.0020

# System: not listed separately
# Assay: Solubility in the aqueous culture medium
# Type: physicochemical
# Details: not given
# Description: RPMI-1640 medium (Cibi/Life Technologies, UK), fetal calf serum (FCS, Gibco), DMSO, phytohemagglutinin A (PHA), lipopolysaccharide (LPS) from E. coli strain O111:B4 (Sigma), […]-2,5-diphenyltetrazolium bromide (MTT), SDS and DMF (Sigma). The culture medium consisted of RPMI-1640, 10% addition of FCS, L-glutamine, sodium pyruvate, 2-mercaptoetanol and antibiotics (streptomycin and penicillin). Cyclic tetrapeptides were initially dissolved in DMSO (5 mg/ml), the dissolved in the culture medium to the desired concentration.
# The effects of the peptides on PMBC survival in 24h culture are presented in FIGS. 8A, 8B, 8C, 8D, 8E and 8F. Peptide 4B8M (compound I-A) was included as a reference compound. Appropriate dilutions of DMSO were added to control cultures. […] In the figures, P01=compound I-D, P02=compound I-E, P03=compound I-F, P04=compound I-G, P05=compound I-H, P06=compound I-J, P07=compound I-K, P08=compound I-L, P10a=compound I-M, P10b=compound I-N, P11=compound I-O, P21=compound I-R, P-21b=compound I-Q, P22=compound I-S, P23-2=compound I-U, P24=compound I-V, P25=compound I-X, P25-i=compound I-W, P26=compound I-Y, P27=compound I-Z, P28=compound I-AA, P29=compound I-AB, P30=compound I-AC, P31=compound I-AD, P32=compound I-AE, P33=compound I-AG, P33-b=compound I-AF, P34=compound I-AH, P35=compound I-AI, P00S-b=compound I-AJ, SP00-b=compound I-AL.
row,SMILES,solubility in the aqueous culture medium
1,O=C1C[C@H](Cc2ccccc2)NC(=O)[C@@H]2CCCN2C(=O)[C@@H]2CCCN2C(=O)[C@H](Cc2ccc(I)cc2)N1 [I-W] (cyclo(PP[β3hF][Phe(4-I)])),incomplete solubility

# System: PHA-induced proliferation of human peripheral blood mononuclear cells (PBMC)
# Assay: Proliferative response of PBMC to PHA (MTT)
# Type: cell-based
# Details: 10 μg/ml, four-day incubation; FIGS. 9A-9F
row,SMILES,"PHA-induced PBMC proliferation, P vs DMSO at appropriate dilution"
1,O=C1C[C@H](Cc2ccccc2)NC(=O)[C@@H]2Cc3ccccc3CN2C(=O)[C@@H]2CCCN2C(=O)[C@H](Cc2ccccc2)N1 [I-AB] (cyclo(FP[Tic][β3hF])),1.0000
2,Cc1ccc(C[C@@H]2NC(=O)C[C@H](Cc3ccccc3)NC(=O)[C@@H]3CCCN3C(=O)[C@@H]3CCCN3C2=O)cc1 [I-Z] (cyclo(PP[β3hF][Phe(4-Me)])),0.9121
3,O=C1C[C@H](Cc2ccccc2)NC(=O)[C@@H]2CCCN2C(=O)[C@@H]2C=CCN2C(=O)[C@H](Cc2ccccc2)N1 [I-S] (cyclo(F[ΔPro]P[β3hF])),0.0275
4,O=C1C[C@H](Cc2ccccc2)NC(=O)[C@@H]2CCCN2C(=O)[C@@H]2CCCN2C(=O)[C@H](Cc2ccc(I)cc2)N1 [I-W] (cyclo(PP[β3hF][Phe(4-I)])),0.0001
5,O=C1C[C@H](Cc2ccccc2)NC(=O)[C@@H]2CCCN2C(=O)[C@@H]2CCCN2C(=O)[C@H](Cc2ccc3ccccc3c2)N1 [I-U] (cyclo([2Nal]PP[β3hF])),1.0000

# Same assay, conditions: 100 μg/ml, four-day incubation; FIGS. 9A-9F
row,SMILES,"PHA-induced PBMC proliferation, P vs DMSO at appropriate dilution"
1,O=C1C[C@H](Cc2ccccc2)NC(=O)[C@@H]2Cc3ccccc3CN2C(=O)[C@@H]2CCCN2C(=O)[C@H](Cc2ccccc2)N1 [I-AB] (cyclo(FP[Tic][β3hF])),0.0001
2,Cc1ccc(C[C@@H]2NC(=O)C[C@H](Cc3ccccc3)NC(=O)[C@@H]3CCCN3C(=O)[C@@H]3CCCN3C2=O)cc1 [I-Z] (cyclo(PP[β3hF][Phe(4-Me)])),0.8195
3,O=C1C[C@H](Cc2ccccc2)NC(=O)[C@@H]2CCCN2C(=O)[C@@H]2C=CCN2C(=O)[C@H](Cc2ccccc2)N1 [I-S] (cyclo(F[ΔPro]P[β3hF])),0.0001
4,O=C1C[C@H](Cc2ccccc2)NC(=O)[C@@H]2CCCN2C(=O)[C@@H]2CCCN2C(=O)[C@H](Cc2ccc(I)cc2)N1 [I-W] (cyclo(PP[β3hF][Phe(4-I)])),0.0001
5,O=C1C[C@H](Cc2ccccc2)NC(=O)[C@@H]2CCCN2C(=O)[C@@H]2CCCN2C(=O)[C@H](Cc2ccc3ccccc3c2)N1 [I-U] (cyclo([2Nal]PP[β3hF])),0.0002

# System: mice, carrageenan-induced foot pad edema
# Assay: Carrageenan-induced foot-pad edema test
# Type: in vivo, mouse
# Details: 4 h after carrageenan; peptides 250 μg i.p., DEX 25 μg i.p., 30 min before; FIGS. 17A-17C
# Description: as §1
row,SMILES,"foot pad edema (increase of foot pad thickness), P vs Control"
1,O=C1C[C@H](Cc2ccccc2)NC(=O)[C@@H]2Cc3ccccc3CN2C(=O)[C@@H]2CCCN2C(=O)[C@H](Cc2ccccc2)N1 [I-AB] (cyclo(FP[Tic][β3hF])),0.9999
2,Cc1ccc(C[C@@H]2NC(=O)C[C@H](Cc3ccccc3)NC(=O)[C@@H]3CCCN3C(=O)[C@@H]3CCCN3C2=O)cc1 [I-Z] (cyclo(PP[β3hF][Phe(4-Me)])),0.0050
3,O=C1C[C@H](Cc2ccccc2)NC(=O)[C@@H]2CCCN2C(=O)[C@@H]2C=CCN2C(=O)[C@H](Cc2ccccc2)N1 [I-S] (cyclo(F[ΔPro]P[β3hF])),1.0000
4,O=C1C[C@H](Cc2ccccc2)NC(=O)[C@@H]2CCCN2C(=O)[C@@H]2CCCN2C(=O)[C@H](Cc2ccc3ccccc3c2)N1 [I-U] (cyclo([2Nal]PP[β3hF])),0.0083
